Laboratory results: patent US8969080B2, “Remedy for the treatment of cardio-vascular diseases or disorders” (Max-Delbrueck-Centrum fuer Molekulare Medizin, priority 2007, dated 2015)

Tests used:
[1] = biological target: T1, β-catenin (Homo sapiens, UniProt P35222); experiment: co-immunoprecipitation of KLF15 and KLF15 mutants with β-catenin; assay type: binding; details: full length KLF15
T1 sequence (P35222 1-781): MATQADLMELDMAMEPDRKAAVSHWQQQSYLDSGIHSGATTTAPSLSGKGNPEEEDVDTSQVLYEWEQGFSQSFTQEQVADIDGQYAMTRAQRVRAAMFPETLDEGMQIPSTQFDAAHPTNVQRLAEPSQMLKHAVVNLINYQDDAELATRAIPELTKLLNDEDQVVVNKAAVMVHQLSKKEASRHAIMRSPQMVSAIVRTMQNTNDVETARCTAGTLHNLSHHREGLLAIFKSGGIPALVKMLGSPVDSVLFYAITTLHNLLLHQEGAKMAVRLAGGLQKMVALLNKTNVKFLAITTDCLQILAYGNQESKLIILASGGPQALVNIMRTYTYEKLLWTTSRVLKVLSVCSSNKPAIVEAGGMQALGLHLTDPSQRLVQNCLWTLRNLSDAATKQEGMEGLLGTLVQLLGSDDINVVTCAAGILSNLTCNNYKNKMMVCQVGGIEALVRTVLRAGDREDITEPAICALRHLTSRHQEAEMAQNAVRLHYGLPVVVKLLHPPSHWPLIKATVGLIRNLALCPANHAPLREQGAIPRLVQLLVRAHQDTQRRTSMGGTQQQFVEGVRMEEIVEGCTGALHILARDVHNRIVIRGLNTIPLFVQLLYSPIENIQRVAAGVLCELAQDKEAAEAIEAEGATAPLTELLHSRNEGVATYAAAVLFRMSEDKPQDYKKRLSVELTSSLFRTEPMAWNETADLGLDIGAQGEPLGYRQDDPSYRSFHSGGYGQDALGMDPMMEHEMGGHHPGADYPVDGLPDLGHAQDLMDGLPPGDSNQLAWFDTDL
Method: (§1) The transcription factor Krüppel-like factor (KLF) 15 inhibits β-catenin dependent transcription in isolated cardiomyocytes through a direct interaction of its C-terminal end as shown by topflash reporter gene assay and immunoprecipitation assays (FIG. 9 A). Isolated neonatal rat cardiomyocytes were used as a model system to analyze factors inhibiting β-catenin dependent gene regulation. β-catenin dependent transcription was measured by reporter gene assay. […] Concerning the molecular mechanisms, KLF15 mutants were analyzed concerning their direct protein interaction to β-catenin employing immunoprecipitation analysis (FIG. 9 B). The interacting domain was mapped to the N-terminus between amino acids 1 and 45 (FIG. 9 B), where as the C-terminus was also required for the transcriptional repressive function.
(§2) Inhibition of β-catenin-dependent gene transcription by KLF15. (A) Reporter gene assay in isolated neonatal cardiomyocytes showing activation of the topflash reporter gene by stabilized β-catenin (ΔN-catenin; dN). A dose-dependent inhibition is observed by co-transfection of KLF15.

[2] = tested on: β-catenin dependent transcription; experiment: topflash reporter gene assay in isolated neonatal rat cardiomyocytes; assay type: cell-based; details: co-transfection of KLF15; reporter activated by stabilized β-catenin (ΔN-catenin)
Method: as §1, §2

[3] = tested on: mice; experiment: AngII infusion by minipump in control, β-catenin depleted and β-catenin stabilized mice; assay type: in vivo, mouse
Method: After 12 days' AngII infusion at pressure doses (1.4 μg Kg^−1 min^−1), control animals developed hypertrophy as judged by echocardiography, gene regulation, in vivo cross sectional area, and heart/body weight ratio as described before (FIG. 4). From the M-mode echocardiography imaging, a thickened inter-ventricular septum and LV posterior wall after AngII was identified in control animals (FIG. 4A). […] LV wall thickening was identical in β-catenin heart-depleted animals and control littermates after AngII (data not shown). […] Moreover, AngII increased gene expression of several hypertrophy gene markers in both control and b-catenin heart-depleted animals with the exception of β-myosin heavy chain (FIG. 4 C). A lack of β-MHC upregulation in response to stress stimuli might be indicative of adaptive cardiac remodeling preserving LV-function as described before (van Rooij E et al., Circ Res. 2004; 94:18e-26).
The effects of 12 days' AngII infusion in mice with cardiac stabilized β-catenin (β-cat^Δex3) were opposite in kind to those of mice with β-catenin heart-depletion. […] ANP (β-cat^Δex3 0.4±0.15; β-cat^Δex3+AngII 1.03±0.15; p<0.01) and BNP (β-cat^Δex3 0.43±0.24; β-cat^Δex3+AngII 1.4±0.27; p<0.01) expression was induced by AngII but final values were generally lower than in control mice (ANP: CT+AngII 2.3±0.8; BNP: CT+AngII 2.6±0.6).
As expected, fractional shortening increased in control mice after AngII treatment (31.1±1.6% to 36.2±1.6%). However, β-catenin heart-stabilization led to reduced fractional shortening after AngII infusion (34.7±2.9% to 22.4±4.5%, p<0.05). These absolute values in animals aged 10 to 14 weeks are identical to a serial analysis of the age-dependant changes employing the same high-resolution echo techniques as used for these studies. […] These absolute values are similar to other reports, i.e. rates of apoptotic cardiomyocytes after trans-aortic constriction. Moreover, no significant differences concerning fibrosis occurring focally throughout the LV wall was observed when both transgenic models were to their respective controls.
Representative examples of M-mode echocardiograms (not shown), quantification of echocardiographic parameters and heart/body weight from control and β-cat^Δex3-6 mice with and without AngII infusion are shown (n≧6 for each group) (B) Myocyte cross-sectional area increases in both control and β-catenin depleted β-cat^Δex3-6 mice as measured by WGA-FITC staining of cardiac tissue sections and quantification from control or β-cat^Δex3-6 mice with AngII infusion (data not shown). At least 500 cells were measured for each animal, n≧4 mice per group. (C) Significant upregulation of ANP, BNP and α-sarcomeric actin normalized to GAPDH after AngII in control and β-catenin depleted β-cat^Δex3-6 mice. Quantification by real-time PCR of whole heart RNA samples from control (white) or β-cat^Δex3-6 (grey) mice without (open bars) and with (shaded bars) AngII infusion. *=P<0.05, **=P<0.01, ***=P<0.001.
(A) Attenuation of cardiac hypertrophy after AngII in β-catenin stabilized mice is accompanied by significant deterioration of systolic function as measured by fractional shortening (right bar graph). Representative examples of M-mode echocardiograms and quantification from control or β-cat^Δex3 mice with and without AngII infusion. Quantification of echocardiographic wall size and fractional shortening from control or β-cat^Δex3 mice with and without AngII infusion. *=P<0.05, **=P<0.01. (B) Increase of myocyte cross-sectional area after AngII is attenuated in β-catenin stabilized β-cat^Δex3 mice (data not shown). At least 400 cells counted per animal, mice per group. ***=P<0.001. (C) Rates of TUNEL/α-sarcomeric actin/DAPI-positive cardiomyocytes after AngII infusion decrease after β-catenin stabilization in β-cat^Δex3. In addition to the TUNEL-assay, slides were co-stained with α-sarcomeric actin and DAPI in control mice and β-cat^Δex3 mice before and after AngII stimulation (data not shown).

Substance	direct protein interaction to β-catenin (immunoprecipitation) [1]	topflash reporter gene activation [2]	cardiomyocyte size following AngII treatment ([3]; CT animals of the β-catenin stabilization model)	TUNEL-positive cells after AngII ([3]; CT of the β-catenin depletion model, baseline 0.004±0.004) [%]	ANP expression ([3]; CT+AngII)	BNP expression ([3]; CT+AngII)	TUNEL/α-sarcomeric actin/DAPI-positive cells after AngII ([3]; CT+AngII, β-catenin stabilization model) [%]	Axin2 levels (whole heart RNA) ([3]; both control and β-catenin stabilized mice)	cellular cross sectional area ([3]; control mice of the β-catenin depletion model, after 12 days' AngII infusion)	fractional shortening after AngII ([3]; control mice, baseline 31.1±1.6%) [%]	Tbx5 gene expression ([3]; control mice, effect lost in β-catenin stabilized mice)	ANP expression ([3]; β-cat^Δex3+AngII, baseline 0.4±0.15)	BNP expression ([3]; β-cat^Δex3+AngII, baseline 0.43±0.24)	TUNEL-positive cells after AngII ([3]; β-cat^Δex3-6 mice, baseline 0.112±0.044%) [%]	cardiomyocyte size following AngII treatment ([3]; β-cat^Δex3 mice)	TUNEL/α-sarcomeric actin/DAPI-positive cells after AngII ([3]; β-cat^Δex3 mice, baseline 0.058±0.027%) [%]	cellular cross sectional area ([3]; β-catenin depleted mice (β-cat^Δex3-6), after 12 days' AngII infusion 1.4 μg Kg^−1 min^−1)	fractional shortening after AngII ([3]; β-catenin heart-stabilized mice, baseline 34.7±2.9%) [%]
KLF15: transcription factor Krüppel-like factor 15, co-transfected; inhibits β-catenin dependent transcription	interaction	inhibit topflash reporter gene activation dose dependendly																
Angiotensin II (DRVYIHPF; Angiotensin-2; UniProt P01019 25-32, looked up) [AngII, hypertrophic stress stimulus infused by minipump]			9.07×10^7±0.14×10^7	0.09±0.02	2.3±0.8	2.6±0.6	0.297±0.025	increased	12.3×10^7±0.19×10^7 a.u.	36.2±1.6	significantly downregulated	1.03±0.15	1.4±0.27	0.2±0.13	8.14×10^7±0.14×10^7	0.120±0.049	12.1×10^7±0.24×10^7 a.u.	22.4±4.5
